Measurements: patent US7312358B2, “Pharmaceutically active sulfanilide derivatives” (Laboratoires Serono SA, priority 2000, dated 2007)

Legend:
hOT-R = target: T1, hOT-R (Homo sapiens, UniProt P30559); experiment: Inhibition of oxytocin mediated Ca2+-mobilization by FLIPR (HEK cells); format: cell-based; details: fluo-4, OT 40 nM
T1 construct: expressed in transfected cells; host or cells: HEK (Human Embryonic Kidney) cells
T1 sequence (P30559 1-389): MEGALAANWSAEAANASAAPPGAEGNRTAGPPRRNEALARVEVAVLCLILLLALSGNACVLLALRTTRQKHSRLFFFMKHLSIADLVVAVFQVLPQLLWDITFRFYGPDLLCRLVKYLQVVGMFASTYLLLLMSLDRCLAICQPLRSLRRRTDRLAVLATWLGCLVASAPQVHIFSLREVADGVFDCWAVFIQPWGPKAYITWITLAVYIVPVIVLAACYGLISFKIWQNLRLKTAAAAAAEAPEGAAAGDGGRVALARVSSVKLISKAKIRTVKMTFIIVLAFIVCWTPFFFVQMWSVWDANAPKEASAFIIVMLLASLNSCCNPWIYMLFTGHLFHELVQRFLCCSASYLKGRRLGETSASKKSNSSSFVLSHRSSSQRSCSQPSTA
Source text: c) Functional Assay No. 1: Inhibition of Oxytocitn Mediated Ca^2+-Mobilization by FLIPR (Fluorescent Imaging Plate Reader)
FLIPR is a machine for fluorescence imaging using a laser that is capable of illuminating a 96-well plate and a means of simultaneously reading each well thus enabling rapid measurements on a large number of samples.
This assay intends to show the inhibition of the OT/OT-R mediated calcium mobilisation—being necessary to cause uterine contractions—by using test compounds of formula (I).
Preparing the plates: FLIPR-plates were pre-coated with PLL (Poly-L-Lysine) 10 μg/ml+0.1% gelatine to attach the HEK (Human Embryonic Kidney) cells for 30 min up to 2 days at 37° C. The cells were plated out into 96-well plates (60000 cells/well).
Labelling with fluo-4: […] fluo-4 (fluorescent marker) were dissolved in 20 μl pluronic acid (20% in DMSO). The dissolved fluo-4 was then diluted in 10 ml DMEM (Dubecco's Minimal Essential Medium-F12 medium without FCS (Fetal Calf Serum). The medium was removed from the plates, followed by one wash with DNEM-F12 medium. Now, 100 μl of the DMEM-F12 medium containing fluo-4 were added and the cells incubated for 1.5-2 h (HEK-cells). The cells now contain the fluorescent marker.
Buffer: 145 mM NaCl, 5 mM KCl, 1 mM MgCl2, 10 mM Hepes, 10 mM Glucose, EGTA (Ethylene-bis oxyethylene nitrilo tetraacetic acid). Adjust to pH 7.4.
Performance of the assay: A minimum of 80 μl/well of antagonists (5×) in the above buffer (1×) were prepared (96-well plates). The antagonists were added to the well-plates at different concentrations (30 μM, 10 μM, 1 μM, 300 nM, 100 nM, 10 nM, 1 nM, 100 pM, 10 pM).
OT is added at a concentration of 40 nM.
The fluorescent marker being sensitive to the amount of Ca^2+ mobilized within the cell may be quantified by the FLIPR machine.
The activities of the sulfanilide derivatives according to formula I were assessed using the above described in vitro biological assay. The values refer to the capacity of the example compounds according to formula I to effectively antagonize oxytocin-induced intracellular Ca^2+-mobilization mediated by the oxytocin receptor.

hOT receptor = target: T2, hOT receptor (Homo sapiens, UniProt P30559); experiment: In vitro competition binding assay on hOT receptor with scintillating proximity assay; details: membranes from HEK293EBNA cells expressing hOT receptor; radiolabel [125I]-OVTA; SPA; read-out: Binding Affinity Human OT-R Ki
T2 construct: expressed in transfected cells; host or cells: HEK293EBNA cells (membranes)
T2 sequence (P30559 1-389): T1 sequence (P30559 1-389)
Protocol: a) In Vitro Competition Binding Assay on hOT Receptor with Scintillating Proximity Assay (Pharmaceutical Manufacturing International, 1992, p. 49-53 by Cook, N. D. et al)
This assays allows to determine the affinity of the test compounds for the OT receptor. Membranes from HEK293EBNA cells expressing the hOT receptor were resuspended in buffer containing 50 mM Tris-HCl, pH 7.4, 5 mM MgCl2 and 0.1% BSA (w/v). The membranes (2-4 μg) were mixed with 0.1 mg wheat-germ aglutinin (WGA) SPA bead (type A) and 0.2 nM of the radiolabel [^125I]-OVTA (OVTA being […] and is an analogue of OT for competition binding experiments). Non-specific binding was determined in the presence of 1 μM Oxytocin. The total assay volume was 100 μl. The plates (Corning (D NBS plate) were incubated at room temperature for 30 min and counted on a Mibrobeta plate counter. The tests compounds were used in concentrations of 30 μM, 10 μM, 1 μM, 300 nM, 100 nM, 10 nM, 1 nM, 100 pM, 10 pM. The competition binding data were analysed using the iterative, nonlinear, curve-fitting program, “Prism”.
The binding affinities to the oxytocin receptor of the sulfanilide derivatives claimed in the formula I were assessed using the above described in vitro biological assay. The values refer to the binding affinity (IC50; μM) of the example compounds according to formula I to the Oxytocin receptor. From the values shown in Table 1 it can be derived that said test compounds according to formula I do show a significant binding to the oxytocin receptor.

| IC50 (hOT-R) [nM] | melting point [°C] | Ki (hOT receptor) [nM] | Compound |
| --- | --- | --- | --- |
| 45 | – | – | COc1ccc(N(CC(=O)Nc2cccc(Cl)c2C)S(=O)(=O)c2ccccc2)cc1 [2-[Benzenesulfonyl-(4-methoxy-phenyl)-amino]-N-(3-chloro-2-methyl-phenyl)-acetamide] |
| 392 | – | – | COc1ccc(N(CC(=O)Nc2cccc(OC)c2)S(=O)(=O)c2ccccc2)cc1 [2-[Benzenesulfonyl-(4-methoxy-phenyl)-amino]-N-(3-methoxy-phenyl)-acetamide] |
| 363 | – | – | COc1ccc(N(CC(=O)Nc2cccc3ccccc23)S(=O)(=O)c2ccccc2)cc1 [2-[Benzenesulfonyl-(4-methoxy-phenyl)-amino]-N-naphthalen-1-yl-acetamide] |
| – | 109 to 110 | – | CCOc1ccc(S(=O)(=O)N(CC(=O)N/N=C2/C(=O)N(C)c3ccccc32)c2ccc(C)cc2)cc1 [Example 20, 4-ethoxy-N-{2-[2-(1-methyl-2-oxo-1,2-dihydro-3H-indol-3-ylidene)hydrazino]-2-oxoethyl}-N-(4-methylphenyl)benzenesulfonamide] |
| – | 199 to 200 | – | CCOc1ccc(S(=O)(=O)N(CC(=O)N/N=C(/C)c2ccccc2O)c2ccc(C)cc2)cc1 [Example 22, 4-ethoxy-N-(2-{2-[1-(2-hydroxyphenyl)ethylidene]hydrazino}-2-oxoethyl)-N-(4-methylphenyl)benzenesulfonamide] |
| – | 194 to 195 | – | CC(C)(C)c1ccc(S(=O)(=O)N(CC(=O)N/N=C2/C(=O)Nc3ccccc32)c2ccc(Cl)cc2)cc1 [Example 26, 4-tert-Butyl-N-(4-chlorophenyl)-N-{2-oxo-2-[(2E)-2-(2-oxo-1,2-dihydro-3H-indol-3-ylidene)hydrazino]ethyl}benzenesulfonamide] |
| – | 132 to 133 | – | COc1ccc(S(=O)(=O)N(CC(=O)N/N=C2/C(=O)Nc3ccccc32)c2ccc(Cl)cc2)cc1OC [Example 27, N-(4-chlorophenyl)-3,4-dimethoxy-N-{2-oxo-2-[(2E)-2-(2-oxo-1,2-dihydro-3H-indol-3-ylidene)hydrazino]ethyl}benzenesulfonamide] |
| – | 139 to 140 | – | Cc1ccc(N(CC(=O)N/N=C2/C(=O)Nc3ccccc32)S(=O)(=O)c2ccc(C(C)(C)C)cc2)cc1 [Example 28, 4-tert-Butyl-N-(4-methylphenyl)-N-{2-oxo-2-[(2E)-2-(2-oxo-1,2-dihydro-3H-indol-3-ylidene)hydrazino]ethyl}benzenesulfonamide] |
| – | 198 to 199 | – | CCCc1ccc(S(=O)(=O)N(CC(=O)N/N=C2/C(=O)Nc3ccccc32)c2ccc(C)cc2)cc1 [Example 29, N-(4-methylphenyl)-N-{2-oxo-2-[(2E)-2-(2-oxo-12-dihydro-3H-indol-3-ylidene)hydrazino]ethyl}-4-propylbenzenesulfonamide] |
| 102 | – | 0.4 | CCOc1ccc(S(=O)(=O)N(CC(=O)N/N=C2\C(=O)Nc3ccccc32)c2ccc(Cl)cc2)cc1 [Example 40, N-(4-chlorophenyl)-4-ethoxy-N-{2-oxo-2-[(2Z)-2-(2-oxo-1,2-dihydro-3H-indol-3-ylidene)hydrazino]ethyl}benzenesulfonamide] |
| 6.9 | – | 2.9 | COCCOCCOc1ccc(S(=O)(=O)N(CC(=O)N/N=C2\C(=O)Nc3ccccc32)c2ccc(Cl)cc2)cc1 [Example 61, N-(4-chlorophenyl)-4-[2-(2-methoxyethoxy)ethoxy]-N-{2-oxo-2-[(2Z)-2-(2-oxo-1,2-dihydro-3H-indol-3-ylidene)hydrazino]ethyl}benzenesulfonamide] |
| 8 | – | – | COCCOc1ccc(S(=O)(=O)N(CC(=O)N/N=C2\C(=O)Nc3ccccc32)c2ccc(Cl)cc2)cc1 [Example 62, N-(4-chlorophenyl)-4-(2-methoxyethoxy)-N-{2-oxo-2-[(2Z)-2-(2-oxo-1,2-dihydro-3H-indol-3-ylidene)hydrazino]ethyl}benzenesulfonamide] |
| 17 | – | 2.8 | O=C(CN(c1ccc(Cl)cc1)S(=O)(=O)c1ccc(OCCCc2cccnc2)cc1)N/N=C1\C(=O)Nc2ccccc21 [Example 63, N-(4-chlorophenyl)-N-{2-oxo-2-[(2Z)-2-(2-oxo-1,2-dihydro-3H-indol-3-ylidene)hydrazino]ethyl}-4-[3-(3-pyridinyl)propoxy]benzenesulfonamide] |
| 49 | – | 6.9 | O=C(CN(c1ccc(Cl)cc1)S(=O)(=O)c1ccc(NCCN2CCOCC2)cc1)N/N=C1\C(=O)Nc2ccccc21 [Example 65, N-(4-chlorophenyl)-4-{[2-(4-morpholinyl)ethyl]amino}-N-{2-oxo-2-[(2Z)-2-(2-oxo-1,2-dihydro-3H-indol-3-ylidene)hydrazino]ethyl}benzenesulfonamide] |
| 19 | – | 3.4 | Cc1ccc(N(CC(=O)N/N=C2\C(=O)Nc3ccccc32)S(=O)(=O)c2ccc(CCC(N)=O)cc2)cc1 [Example 66, 3-{4-[(4-methyl{2-oxo-2-[(2Z)-2-(2-oxo-1,2-dihydro-3H-indol-3-ylidene)hydrazino]ethyl}anilino)sulfonyl]phenyl}propanamide] |
| 393 | – | 108 | COC(=O)c1cccc2c1NC(=O)/C2=N\NC(=O)CN(c1ccc(Cl)cc1)S(=O)(=O)c1ccc(OCCCN(C)C)cc1 [Example 70, Methyl (3Z)-3-({[4-chloro({4-[3-(dimethylamino)propoxy]phenyl}sulfonyl)anilino]acetyl}hydrazono)-2-oxo-2,3-dihydro-1H-indole-7-carboxylate] |
| 595 | – | – | Cc1ccc(N(CC(=O)NCc2ccc(Cl)cc2Cl)S(=O)(=O)c2ccc(C)cc2)cc1 [N-(2,4-Dichloro-benzyl)-2-[(toluene-4-sulfonyl)-p-tolyl-amino]-acetamide] |

| Compound | IC50 (hOT-R) [nM] | melting point [°C] | Ki (hOT receptor) [nM] |
| --- | --- | --- | --- |
| CCCCOc1ccc(S(=O)(=O)N(CC(=O)N/N=C2/C(=O)Nc3ccccc32)c2ccc(C)cc2)cc1 [Example 30, 4-Butoxy-N-(4-methylphenyl)-N-{2-oxo-2-[(2E)-2-(2-oxo-1.2-dihydro-3H-indol-3-ylidene)hydrazino]ethyl}benzenesulfonamide] | – | 111 to 112 | – |
| CN(C)CCCNC(=O)CCc1ccc(S(=O)(=O)N(CC(=O)N/N=C2\C(=O)Nc3ccccc32)c2ccc(Cl)cc2)cc1 [Example 71, 3-{4-[(4-chloro{2-oxo-2-[(2Z)-2-(2-oxo-1,2-dihydro-3H-indol-3-ylidene)hydrazino]ethyl}anilino)sulfonyl]phenyll}-N-[3-(dimethylamino)propyl]propanamide] | 14 | – | 0.7 |
